Measured values published in article PMC12391121, “Identification and validation of the VEGF/p38MAPK/HSP27 pro-tumor inflammatory pathway: screening of active components from Patrinia villosa and evaluation of their drug-likeness” (Frontiers in Immunology, 2025).

What was measured:
p38MAPK = biological target: T1, p38MAPK (Homo sapiens, UniProt Q16539); assay: microscale thermophoresis; assay type: binding
T1 construct: gene MAPK14; commercial recombinant human protein; labelled with Monolith RED-NHS

HSP27 = biological target: T2, HSP27 (Homo sapiens, UniProt P04792); assay: microscale thermophoresis; assay type: binding
T2 construct: gene HSPB1; commercial recombinant human protein; labelled with Monolith RED-NHS
Description: microscale thermophoresis on HSP27

T2 sequence (P04792 whole entry): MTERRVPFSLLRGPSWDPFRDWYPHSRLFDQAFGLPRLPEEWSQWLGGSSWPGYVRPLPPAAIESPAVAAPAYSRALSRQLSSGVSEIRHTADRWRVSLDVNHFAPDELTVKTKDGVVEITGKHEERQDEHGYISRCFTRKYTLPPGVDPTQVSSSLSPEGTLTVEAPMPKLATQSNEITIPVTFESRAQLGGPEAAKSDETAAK
T1 sequence (Q16539 2-360): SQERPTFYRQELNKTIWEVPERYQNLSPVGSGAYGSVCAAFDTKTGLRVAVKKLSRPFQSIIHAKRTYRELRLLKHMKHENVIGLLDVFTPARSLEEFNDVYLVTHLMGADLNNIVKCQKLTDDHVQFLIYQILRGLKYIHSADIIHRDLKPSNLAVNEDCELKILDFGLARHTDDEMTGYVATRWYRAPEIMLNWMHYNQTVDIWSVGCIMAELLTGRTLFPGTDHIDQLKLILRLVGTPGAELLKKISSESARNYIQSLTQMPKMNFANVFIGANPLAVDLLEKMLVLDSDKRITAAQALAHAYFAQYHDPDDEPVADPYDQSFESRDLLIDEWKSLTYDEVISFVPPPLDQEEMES

SMILES	Kd (p38MAPK) [µM]	Kd (HSP27) [µM]
O=C(/C=C/c1ccc(O)c(O)c1)O[C@@H]1[C@H](O)C[C@@](O)(C(=O)O)C[C@H]1OC(=O)/C=C/c1ccc(O)c(O)c1 [4,5-Dicqa]	1.71	3.64
C[C@@H]1O[C@@H](OC[C@H]2O[C@@H](Oc3c(-c4ccc(O)cc4)oc4cc(O)cc(O)c4c3=O)[C@H](O)[C@@H](O)[C@@H]2O)[C@H](O)[C@H](O)[C@H]1O [Nicotiflorin]	1.4	4.47
C[C@@H]1O[C@@H](OC[C@H]2O[C@@H](Oc3c(-c4ccc(O)c(O)c4)oc4cc(O)cc(O)c4c3=O)[C@H](O)[C@@H](O)[C@@H]2O)[C@H](O)[C@H](O)[C@H]1O [Rutin]	1.27	3.76
C[S+]([O-])c1ccc(-c2nc(-c3ccncc3)c(-c3ccc(F)cc3)[nH]2)cc1 (stereo not shown) [SB203580]	–	0.915
